Results as given in publication PMC4868099 (ACS Medicinal Chemistry Letters, 2016).
Entries after “also recorded” stand apart in the source; their conditions may differ.

Tests used:
[1] = molecular target: T1, human kidney-type glutaminase (hKGA124–669) (Homo sapiens, UniProt O94925); assay type: biochemical
T1 sequence (O94925 124-669): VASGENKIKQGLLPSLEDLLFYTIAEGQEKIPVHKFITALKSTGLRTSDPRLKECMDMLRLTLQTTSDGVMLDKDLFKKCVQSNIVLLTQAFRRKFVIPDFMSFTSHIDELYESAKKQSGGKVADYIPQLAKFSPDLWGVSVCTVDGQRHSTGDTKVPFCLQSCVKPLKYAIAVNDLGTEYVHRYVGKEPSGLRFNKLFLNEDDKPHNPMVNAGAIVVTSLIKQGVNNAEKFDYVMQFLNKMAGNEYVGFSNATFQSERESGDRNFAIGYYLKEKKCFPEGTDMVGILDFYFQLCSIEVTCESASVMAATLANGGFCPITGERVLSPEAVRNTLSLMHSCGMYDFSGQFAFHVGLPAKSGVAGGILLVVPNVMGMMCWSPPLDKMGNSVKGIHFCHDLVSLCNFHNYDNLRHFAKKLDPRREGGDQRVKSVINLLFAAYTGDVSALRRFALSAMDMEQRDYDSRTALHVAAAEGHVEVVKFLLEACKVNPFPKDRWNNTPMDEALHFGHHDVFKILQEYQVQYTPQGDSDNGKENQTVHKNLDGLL

MDA-MB-231 = assay: Cell growth / viability, CellTiter-Glo, MDA-MB-231; assay type: cell-based, human; conditions: 72 h of incubation
HCC1806 = assay: Cell growth / viability, CellTiter-Glo, HCC1806; assay type: cell-based, human; conditions: 72 h of incubation
[2] = tested on: GLS (both KGA and GAC isoenzymes) over GLS2; conditions: cited from earlier work

Question: With O=C(Cc1ccc(O)cc1)Nc1nnc(CCCCc2nnc(NC(=O)Cc3ccc(O)cc3)s2)s1 [2q] as the compound, how does the “higher GLS inhibitory potency compared with 2p” value [1] read?
Answer: 10 fold

Question: For O=C(Cc1ccccc1)Nc1nnc(CCCCc2nnc(NC(=O)Cc3ccc(O)cc3)s2)s1 [compound 2m, 4-hydroxy-N-[5-[4-[5-[(2-phenylacetyl)amino]-1,3,4-thiadiazol-2-yl]butyl]-1,3,4-thiadiazol-2-yl]-benzeneacetamide], which “increase in GLS inhibitory potency from the corresponding acetoxy derivative 2j” value [1] is on record?
Answer: ~8 fold

Question: What about the “time dependency of GLS inhibitory potency (effect of preincubation time)” value ([1]; Figure 2) of the same compound?
Answer: no time-dependent increase in GLS inhibitory potency; also recorded: did not exhibit time-dependency

Question: And the “antiproliferative effect compared with BPTES and CB-839 in MDA-MB-231” value (MDA-MB-231)?
Answer: least effective

Question: And the “growth inhibition of MDA-MB-231” value (MDA-MB-231; 1000 nM, P < 0.05 compared to controls)?
Answer: statistically significant growth inhibition

Question: What about the “antiproliferative effect compared with BPTES and CB-839 in HCC1806” value (HCC1806) of the same compound?
Answer: least effective

Question: For [N-]=[N+]=CC(=O)CC[C@H](N)C(=O)O [DON, 6-Diazo-5-oxo-L-norleucine], which “selectivity GLS versus GLS2” value [2] is on record?
Answer: inhibits both GLS and GLS2
